# Data published in the NIST ThermoML archive (doi:10.1016/j.fluid.2013.06.031).
# ± gives the expanded uncertainty stated by the source.
# Settings: Liquid, Closed cell (Static) method
compound,measurement,setting,value
"CC(F)(F)CC(F)(F)F [1,1,1,3,3-pentafluorobutane]",vapor or sublimation pressure,332.79 K,194.9 ± 0.7 kPa
same,vapor or sublimation pressure,333.18 K,197.1 ± 0.7 kPa
same,vapor or sublimation pressure,342.65 K,261.5 ± 0.8 kPa
same,vapor or sublimation pressure,347.94 K,303.9 ± 0.8 kPa
same,vapor or sublimation pressure,352.87 K,348.7 ± 0.9 kPa
same,vapor or sublimation pressure,357.77 K,401.1 ± 0.9 kPa
same,vapor or sublimation pressure,363.03 K,459.2 ± 1 kPa
same,vapor or sublimation pressure,367.94 K,519.8 ± 1.1 kPa
same,vapor or sublimation pressure,372.87 K,586.1 ± 1.2 kPa
same,vapor or sublimation pressure,378.04 K,662.3 ± 1.3 kPa
same,vapor or sublimation pressure,382.95 K,741.4 ± 1.4 kPa
same,vapor or sublimation pressure,387.88 K,828.9 ± 1.5 kPa
same,vapor or sublimation pressure,393.02 K,927.2 ± 1.7 kPa
same,vapor or sublimation pressure,398.06 K,1036.4 ± 1.8 kPa
same,vapor or sublimation pressure,402.92 K,1146 ± 2 kPa
same,vapor or sublimation pressure,408.07 K,1271.5 ± 2.2 kPa
same,vapor or sublimation pressure,413.09 K,1403.8 ± 2.4 kPa
same,vapor or sublimation pressure,418 K,1542.4 ± 2.7 kPa
same,vapor or sublimation pressure,423.13 K,1698.6 ± 2.9 kPa
same,vapor or sublimation pressure,428.15 K,1862.7 ± 3.2 kPa
same,vapor or sublimation pressure,433.05 K,2034.5 ± 3.5 kPa
same,vapor or sublimation pressure,438.03 K,2225.4 ± 3.8 kPa
same,vapor or sublimation pressure,442.99 K,2425.5 ± 4.1 kPa
same,vapor or sublimation pressure,447.89 K,2637.1 ± 4.4 kPa
